*1 amine or outer side, *2 acyl side, *3 side chain or, on linkers, in order; H or OH if unused. Where a SMILES comes first, the peptide text is derived from it. Bridges are numbered along the chain shown (N, C = ends). Roman numbers before positions name the chains, in order. Side-chain parts run from the residue outwards. [ ]: non-standard residue; d: D form. The star is where a group is joined. ξ: configuration not given here. X17 = O=C(O)CCCCCCCCCCCCCCCCCCC(=O)N[C@@H](CCC(=O)NCCOCCOCCOCCOCCOCCOCCOCCOCCOCCOCCOCCOCCOCC(=O)*)C(=O)O; X19 = CC(C)(S[*:2])[C@H](N[*:3])C(=O)C[C@@H](Cc1ccc(OCCN)cc1)C(=O)[*:1]; Me3N+CH2CH2(OCH2CH2)4CO = C[N+](C)(C)CCOCCOCCOCCOCCC(=O)*; Me3N+(CH2)2O(CH2)2O(CH2)2CO = C[N+](C)(C)CCOCCOCCC(=O)*; CH2CH2OCH2CH2OCH2CH2NMe3+ = C[N+](C)(C)CCOCCOCC*; NH(CH2CH2O)2CH2CH2NMe3+ = C[N+](C)(C)CCOCCOCCN*; Trp(7-Me) = Cc1cccc2c(C[C@H](N)C(=O)O)c[nH]c12; C18 diacid = O=C(O)CCCCCCCCCCCCCCCCC(=O)*; X6 = CN(CC[C@H](N[*:1])C(=O)[*:2])[*:3]; γGlu = O=C(O)[C@H](CCC(=O)[*:2])N[*:1]; 2Nal = N[C@@H](Cc1ccc2ccccc2c1)C(=O)O; AEF = NCCOc1ccc(C[C@H](N)C(=O)O)cc1; PEG6 = NCCOCCOCCOCCOCCOCCOCCC(=O)O; X2 = C[N+](C)(C)C[C@@H](CC(=O)O)N*; ξAEF = NCCOc1ccc(CC(N)C(=O)O)cc1; 3Pal = N[C@@H](Cc1cccnc1)C(=O)O; Lys(Me) = CNCCCC[C@H](N)C(=O)O; NMeK = CN[C@@H](CCCCN)C(=O)O; Pen = CC(C)(S)[C@H](N)C(=O)O; Suc = O=C(CCC(=O)[*:2])[*:1]; Thp = NC1(C(=O)O)CCOCC1; X1 = C[N+](C)(C)CCCCC*; AEEA = NCCOCCOCC(=O)O; Sar = CNCC(=O)O

In one assay the target is T1, IL-23R (Homo sapiens, UniProt Q5VWK5).
T1 construct: HEK293 cells containing IL-23R, IL-12Rβ1 and a firefly luciferase reporter gene driven by a STAT-inducible promoter (Promega); host or cells: HEK293
T1 sequence (Q5VWK5 24-629): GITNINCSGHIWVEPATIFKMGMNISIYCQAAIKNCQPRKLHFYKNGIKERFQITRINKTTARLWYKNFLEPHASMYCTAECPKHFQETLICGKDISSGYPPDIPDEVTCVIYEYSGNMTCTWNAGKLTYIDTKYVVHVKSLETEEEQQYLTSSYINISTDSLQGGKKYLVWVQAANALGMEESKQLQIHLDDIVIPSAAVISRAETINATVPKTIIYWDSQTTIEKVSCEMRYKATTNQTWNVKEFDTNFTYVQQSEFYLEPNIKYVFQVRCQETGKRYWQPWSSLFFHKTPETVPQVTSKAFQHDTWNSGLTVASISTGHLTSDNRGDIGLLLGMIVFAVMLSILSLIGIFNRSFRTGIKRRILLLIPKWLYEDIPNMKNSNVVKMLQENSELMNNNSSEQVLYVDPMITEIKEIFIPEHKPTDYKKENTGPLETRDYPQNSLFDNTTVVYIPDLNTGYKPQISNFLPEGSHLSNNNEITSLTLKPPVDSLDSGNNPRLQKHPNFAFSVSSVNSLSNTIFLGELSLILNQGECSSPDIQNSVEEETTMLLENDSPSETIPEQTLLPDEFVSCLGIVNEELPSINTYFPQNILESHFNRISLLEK
As to the kind of experiment: IL23R Reporter Assay. It is filed as cell-based. The note with it: HEK293 cells containing IL-23R, IL-12Rβ1 and STAT-inducible firefly luciferase reporter; 10 ng/mL IL-23 (EC90); 5 h. The method in brief:
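IC50 values were fitted with a 4-parameter Hill equation to luciferase signal, scaled between IL-23-only wells (0% inhibition) and 30 μM reference inhibitor (100%). The readout was a STAT-inducible reporter in IL-23R/IL-12Rβ1 HEK293 cells, stimulated with added 10 ng/mL IL-23 (EC90) for 5 h at 37° C and developed with BioGlo.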
(Reporter assays use an easily measured gene product as a stand-in for the process of interest.)

In assay [1] the test system is IL-23-stimulated phosphorylated STAT3 in peripheral blood mononuclear cells (PBMCs). In words: PBMC pSTAT3 Assay. The conditions noted are these: PBMCs from healthy donors; 30 min preincubation with peptide; IL-23 5 ng/mL for 30 min; phospho-STAT3 by MSD. In kind it is cell-based. In a few lines:
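Phospho-STAT3 quantified by Meso Scale assay in lysates of PBMCs exposed to IL-23 (5 ng/mL, 30 min, 37 °C) after 30 min peptide pretreatment. Cells were cryopreserved donor PBMCs activated 4 days with anti-CD3 plus IL-1β (100 ng/mL) and starved ~4 h; IC50 reported.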

On to `CC(=O)NCCCC[C@@H]1NC(=O)[C@H](Cc2c[nH]c3c(C)cccc23)NC(=O)[C@H]([C@@H](C)O)NC(=O)[C@H](CC(N)=O)NC(=O)[C@@H](NC(C)=O)C(C)(C)SSC(C)(C)[C@@H](C(=O)C[C@@H](Cc2ccc(OCCN)cc2)C(=O)N[C@@H](Cc2ccc3ccccc3c2)C(=O)NC2(C(=O)N[C@@H](CCCCNC(=O)COCCOCCNC(=O)COCCOCCNC(=O)CC[C@H](NC(=O)CCCCCCCCCCCCCCCCC(=O)O)C(=O)O)C(=O)N[C@@H](CC(N)=O)C(=O)N[C@@H](Cc3cccnc3)C(=O)N(C)CC(=O)NCCOCCOCC[N+](C)(C)C)CCOCC2)NC1=O` [compound 64, MeCO-Pen(3)-N-T-7MeW-K(Ac)-Pen(3)-AEF-2Nal-THP-K(PEG2PEG2gEC18OH)-N-3Pya-Sar-CONH(PEG3a)] (I: [2Nal][Thp]K([AEEA-AEEA-γGlu-C18 diacid])N[3Pal][Sar]-{NH(CH2CH2O)2CH2CH2NMe3+} / II: Ac-[Pen]NT[Trp(7-Me)]K(Ac); linker I:N-II:1-II:C via X19), for which the values for the IC50 (against IL-23R; in assay [1]) were no less than 500 nM and 0.5 to 5 nM, respectively.
In the same order, the values of `CC(=O)N(C)CCCC[C@@H]1NC(=O)[C@H](Cc2c[nH]c3c(C)cccc23)NC(=O)[C@H]([C@@H](C)O)NC(=O)[C@H](CC(=O)N(C)C)NC(=O)[C@@H](NC(=O)CCOCCOCCOCCOCCOCCOCCNC(=O)CC[C@H](NC(=O)CCCCCCCCCCCCCCCCC(=O)O)C(=O)O)C(C)(C)SSC(C)(C)[C@@H](C(=O)N[C@@H](Cc2ccc(OCCOCCOCC[N+](C)(C)C)cc2)C(=O)N[C@@H](Cc2ccc3ccccc3c2)C(=O)NC2(C(=O)N[C@@H](CCCCN(C)C(C)=O)C(=O)N[C@@H](CC(N)=O)C(=O)N[C@@H](Cc3cccnc3)C(=O)N(C)CC(=O)N(C)C)CCOCC2)NC1=O` [compound 109, HOC18gEPEG6CO-Pen(3)-N(N(Me)2)-T-7MeW-K(NMeAc)-Pen(3)-APEG3F-2Nal-THP-K(NMeAc)-N-3Pya-Sar-CON(Me)2] ({C18 diacid-γGlu-PEG6}-[Pen]D(NMe2)T[Trp(7-Me)][Lys(Me)](Ac)[Pen]Y(CH2CH2OCH2CH2OCH2CH2NMe3+)[2Nal][Thp][Lys(Me)](Ac)N[3Pal][Sar]-NMe2; disulfide 1-6) are less than 50 nM and less than 0.5 nM.
In the same order, the values of `CC(=O)N(C)CCCC[C@@H]1NC(=O)[C@H](Cc2c[nH]c3c(C)cccc23)NC(=O)[C@H]([C@@H](C)O)NC(=O)[C@H](CC(=O)N(C)C)NC(=O)[C@@H](NC(=O)[C@@H](CCCCNC(=O)COCCOCCOCCOCCOCCOCCOCCOCCOCCOCCOCCOCCOCCNC(=O)CC[C@H](NC(=O)CCCCCCCCCCCCCCCCCCC(=O)O)C(=O)O)NC(=O)CCOCCOCC[N+](C)(C)C)C(C)(C)SSC(C)(C)[C@@H](C(=O)N[C@@H](Cc2ccc(OCCCCC[N+](C)(C)C)cc2)C(=O)N[C@@H](Cc2ccc3ccccc3c2)C(=O)NC2(C(=O)N[C@@H](CCCCN(C)C(C)=O)C(=O)N[C@@H](CC(N)=O)C(=O)N[C@@H](Cc3cccnc3)C(=O)N(C)CC(=O)N(C)C)CCOCC2)NC1=O` [compound 130, cPEG3aCO-k(PEG12gEC20OH)-Pen(3)-N(N(Me)2)-T-7MeW-K(NMeAc)-Pen(3)-TMAPF-2Nal-THP-K(NMeAc)-N-3Pya-Sar-CON(Me)2] ({Me3N+(CH2)2O(CH2)2O(CH2)2CO}-[dK](X17)[Pen]D(NMe2)T[Trp(7-Me)][Lys(Me)](Ac)[Pen]Y(X1)[2Nal][Thp][Lys(Me)](Ac)N[3Pal][Sar]-NMe2; disulfide 2-7) are less than 50 nM and less than 0.5 nM.
For `CC(=O)N(C)CCCC[C@@H]1NC(=O)[C@H](Cc2c[nH]c3c(C)cccc23)NC(=O)[C@H]([C@@H](C)O)NC(=O)[C@H](CC(=O)N(C)C)NC(=O)[C@@H](NC(=O)CCOCCOCC[N+](C)(C)C)C(C)(C)SSC(C)(C)[C@@H](C(=O)N[C@@H](Cc2ccc(OCCOCCOCC[N+](C)(C)C)cc2)C(=O)N[C@@H](Cc2ccc3ccccc3c2)C(=O)NC2(C(=O)N[C@@H](CCCCNC(=O)COCCOCCNC(=O)COCCOCCNC(=O)CC[C@H](NC(=O)CCCCCCCCCCCCCCCCC(=O)O)C(=O)O)C(=O)N[C@@H](CC(N)=O)C(=O)N[C@@H](Cc3cccnc3)C(=O)N(C)CC(=O)N(C)C)CCOCC2)NC1=O` [compound 156, cPEG3aCO-Pen(3)-N(N(Me)2)-T-7MeW-K(NMeAc)-Pen(3)-APEG3F-2Nal-THP-K(PEG2PEG2gEC18OH)-N-3Pya-Sar-CON(Me)2] ({Me3N+(CH2)2O(CH2)2O(CH2)2CO}-[Pen]D(NMe2)T[Trp(7-Me)][Lys(Me)](Ac)[Pen]Y(CH2CH2OCH2CH2OCH2CH2NMe3+)[2Nal][Thp]K([AEEA-AEEA-γGlu-C18 diacid])N[3Pal][Sar]-NMe2; disulfide 1-6), the IC50 is 50 to 500 nM at IL-23R and less than 0.5 nM in assay [1].
Taken in the same sequence, the figures for `CC(=O)NCCCC[C@@H]1NC(=O)[C@H](Cc2c[nH]c3c(C)cccc23)NC(=O)[C@H]([C@@H](C)O)NC(=O)[C@H](CC(N)=O)NC(=O)[C@@H](NC(=O)[C@@H](CCCNC(=N)N)NC(=O)COCCOCCNC(=O)COCCOCCNC(=O)CC[C@H](NC(=O)CCCCCCCCCCCCCCCCC(=O)O)C(=O)O)C(C)(C)SSC(C)(C)[C@@H](C(=O)N[C@@H](Cc2ccc(OCCN)cc2)C(=O)N[C@@H](Cc2ccc3ccccc3c2)C(=O)NC2(C(=O)N[C@@H](CCC(=O)O)C(=O)N[C@@H](CC(N)=O)C(=O)N[C@@H](Cc3cccnc3)C(=O)N(C)CC(N)=O)CCOCC2)NC1=O` [compound 60, HOC18gEPEG2PEG2CO-r-Pen(3)-N-T-7MeW-K(Ac)-Pen(3)-AEF-2Nal-THP-E-N-3Pya-Sar-CONH2] ({C18 diacid-γGlu-AEEA-AEEA}-[dR][Pen]NT[Trp(7-Me)]K(Ac)[Pen][AEF][2Nal][Thp]EN[3Pal][Sar]-NH2; disulfide 2-7) were less than 50 nM and less than 0.5 nM.
As for `Cc1cccc2c(C[C@@H]3NC(=O)[C@H]([C@@H](C)O)NC(=O)[C@H](CC(=O)N(C)C)NC(=O)[C@@H](NC(=O)CCOCCOCCOCCOCC[N+](C)(C)C)C(C)(C)SSC(C)(C)[C@@H](C(=O)NC(Cc4ccc(OCCN)cc4)C(=O)N[C@@H](Cc4ccc5ccccc5c4)C(=O)NC4(C(=O)N[C@@H](CCC(=O)O)C(=O)N[C@@H](CC(N)=O)C(=O)N[C@@H](Cc5cccnc5)C(=O)N(C)[C@@H](CCCCNC(=O)COCCOCCNC(=O)COCCOCCNC(=O)CC[C@H](NC(=O)CCCCCCCCCCCCCCCCC(=O)O)C(=O)O)C(N)=O)CCOCC4)NC(=O)[C@H](CCN(C)C(=O)CCOCCOCCOCCOCC[N+](C)(C)C)NC3=O)c[nH]c12` (some centres unmarked) [compound 153, cPEG5aCO-Pen(3)-N(N(Me)2)-T-7MeW-Dab(NMecPEG5a)-Pen(3)-AEF-2Nal-THP-E-N-3Pya-NMeK(PEG2PEG2gEC18OH)-CONH2] ({Me3N+CH2CH2(OCH2CH2)4CO}-[Pen]D(NMe2)T[Trp(7-Me)][X6](Me3N+CH2CH2(OCH2CH2)4CO)[Pen][ξAEF][2Nal][Thp]EN[3Pal][NMeK]([AEEA-AEEA-γGlu-C18 diacid])-NH2; disulfide 1-6), the IC50 is 50 to 500 nM against IL-23R and less than 0.5 nM in assay [1].
Taken in the same sequence, the figures for `CC(=O)N[C@H](CCCNC(=N)N)C(=O)N[C@@H]1C(=O)N[C@@H](CC(N)=O)C(=O)N[C@@H]([C@@H](C)O)C(=O)N[C@@H](Cc2c[nH]c3c(C)cccc23)C(=O)N[C@@H](CCCCNC(=O)CCC(=O)N[C@H](CC(=O)O)C[N+](C)(C)C)C(=O)N[C@H](C(=O)N[C@@H](Cc2ccc(OCCN)cc2)C(=O)N[C@@H](Cc2ccc3ccccc3c2)C(=O)NC2(C(=O)N[C@@H](CCC(=O)O)C(=O)N[C@@H](CC(N)=O)C(=O)N[C@@H](Cc3cccnc3)C(=O)N(C)CC(=O)N[C@@H](CCCCNC(=O)COCCOCCNC(=O)COCCOCCNC(=O)CC[C@H](NC(=O)CCCCCCCCCCCCCCCCC(=O)O)C(=O)O)C(N)=O)CCOCC2)C(C)(C)SSC1(C)C` [compound 52, MeCO-r-Pen(3)-N-T-7MeW-K(d)-Pen(3)-AEF-2Nal-THP-E-N-3Pya-Sar-K(PEG2PEG2gEC18OH)-CONH2] (Ac-[dR][Pen]NT[Trp(7-Me)]K([Suc-X2])[Pen][AEF][2Nal][Thp]EN[3Pal][Sar]K([AEEA-AEEA-γGlu-C18 diacid])-NH2; disulfide 2-7) were 50 to 500 nM and less than 0.5 nM.

The IC50 is the point on the concentration scale where inhibition reaches its midpoint.

The values are drawn from patent publication US20260250320A1, “LIPIDATED PEPTIDE INHIBITORS OF INTERLEUKIN-23 RECEPTOR” (Janssen Pharmaceutica NV, priority 2023, published 2026).
